{
  "source": "paper PMC8372184",
  "about": "(Synlett : accounts and rapid communications in synthetic …, 2021)",
  "key": {"[1]": {"biological_target": "T1, GlbB (Caldimonas brevitalea, UniProt A8KCI8)", "T1 sequence (A8KCI8 1-286)": "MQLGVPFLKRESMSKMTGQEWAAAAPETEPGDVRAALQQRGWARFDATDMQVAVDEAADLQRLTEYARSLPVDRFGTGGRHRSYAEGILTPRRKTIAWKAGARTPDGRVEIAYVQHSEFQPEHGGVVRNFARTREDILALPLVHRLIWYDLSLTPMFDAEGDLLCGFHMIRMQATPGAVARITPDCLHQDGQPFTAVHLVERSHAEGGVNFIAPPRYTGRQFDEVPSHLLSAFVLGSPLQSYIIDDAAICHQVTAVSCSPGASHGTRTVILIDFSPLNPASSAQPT", "experiment": "4-hydroxylation", "format": "biochemical", "settings": "alpha-ketoglutarate, Fe(II)"}, "[2]": {"biological_target": "T2, KDO1 (Catenulispora acidiphila, UniProt C7QJ42)", "T2 sequence (C7QJ42 1-358)": "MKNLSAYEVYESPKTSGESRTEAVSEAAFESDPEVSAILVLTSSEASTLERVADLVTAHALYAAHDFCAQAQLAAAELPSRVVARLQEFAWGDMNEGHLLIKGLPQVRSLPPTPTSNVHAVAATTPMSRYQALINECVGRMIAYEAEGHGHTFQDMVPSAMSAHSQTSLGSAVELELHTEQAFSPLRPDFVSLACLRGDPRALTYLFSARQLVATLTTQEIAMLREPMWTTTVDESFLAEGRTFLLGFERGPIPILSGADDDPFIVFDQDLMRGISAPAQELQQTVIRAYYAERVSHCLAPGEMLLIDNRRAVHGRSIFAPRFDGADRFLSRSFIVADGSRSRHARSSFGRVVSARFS", "experiment": "gram-scale 3-hydroxylation in E. coli lysate", "format": "biochemical", "settings": "alpha-ketoglutarate, Fe(II)"}, "[3]": {"biological_target": "T3, GetF (Streptomyces sp. L-49973, UniProt E0WFM0)", "T3 sequence (E0WFM0 1-363)": "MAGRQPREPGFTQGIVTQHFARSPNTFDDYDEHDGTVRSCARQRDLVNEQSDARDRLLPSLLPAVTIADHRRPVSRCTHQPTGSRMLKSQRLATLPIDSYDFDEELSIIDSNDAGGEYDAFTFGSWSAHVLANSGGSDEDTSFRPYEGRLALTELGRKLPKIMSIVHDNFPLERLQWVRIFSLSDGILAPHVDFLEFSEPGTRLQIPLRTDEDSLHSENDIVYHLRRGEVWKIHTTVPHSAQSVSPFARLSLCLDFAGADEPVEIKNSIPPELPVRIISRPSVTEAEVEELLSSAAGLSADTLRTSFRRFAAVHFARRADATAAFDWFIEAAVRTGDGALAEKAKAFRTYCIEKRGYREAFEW", "experiment": "C3 hydroxylation, product isolated after Boc protection", "format": "cell-based", "settings": "alpha-ketoglutarate, Fe(II)"}, "[4]": {"biological_target": "T4, GetI (Streptomyces sp. L-49973, UniProt E0WFM2)", "T4 sequence (E0WFM2 1-345)": "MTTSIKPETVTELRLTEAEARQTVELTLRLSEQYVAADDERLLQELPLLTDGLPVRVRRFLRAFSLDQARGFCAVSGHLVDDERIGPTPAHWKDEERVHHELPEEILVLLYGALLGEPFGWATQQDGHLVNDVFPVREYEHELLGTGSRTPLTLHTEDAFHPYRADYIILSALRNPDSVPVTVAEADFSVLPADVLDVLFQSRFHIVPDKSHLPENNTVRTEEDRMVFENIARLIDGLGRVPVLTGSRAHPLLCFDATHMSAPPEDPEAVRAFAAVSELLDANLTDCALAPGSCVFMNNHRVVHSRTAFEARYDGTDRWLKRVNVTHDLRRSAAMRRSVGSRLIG", "experiment": "preparative-scale 4-hydroxylation", "format": "cell-based", "settings": "alpha-ketoglutarate, Fe(II)"}, "[5]": {"biological_target": "T3, GetF", "experiment": "preparative-scale hydroxylation", "format": "cell-based", "settings": "alpha-ketoglutarate, Fe(II)"}, "[6]": {"biological_target": "T5, GriE (Streptomyces muensis, UniProt A0A0E3URV8)", "T5 sequence (A0A0E3URV8 1-270)": "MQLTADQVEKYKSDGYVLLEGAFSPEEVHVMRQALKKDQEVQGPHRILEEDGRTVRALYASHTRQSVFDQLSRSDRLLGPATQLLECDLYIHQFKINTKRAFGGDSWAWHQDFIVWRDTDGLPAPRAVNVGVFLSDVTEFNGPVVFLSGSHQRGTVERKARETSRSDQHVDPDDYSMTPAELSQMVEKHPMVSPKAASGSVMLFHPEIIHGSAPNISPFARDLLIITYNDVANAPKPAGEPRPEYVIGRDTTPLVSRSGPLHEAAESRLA", "experiment": "LCMS of C5 hydroxylation", "format": "biochemical", "settings": "alpha-ketoglutarate, Fe(II), ascorbate"}},
  "data": [
    {"smiles": "NCCCC[C@H](N)C(=O)O", "note": "[L-lysine]", "values": [
      {"measurement": "4-hydroxylation", "setting": "[1]", "result": "GlbB was shown to be a highly efficient enzyme capable of hydroxylating L-lysine"},
      {"measurement": "gram-scale 3-hydroxylation in E. coli lysate", "setting": "[2]", "result": "optimizing the biocatalytic hydroxylation with lysates of E. coli expressing KDO1"}
    ]},
    {"smiles": "C[C@H]1CCN[C@@H]1C(=O)O", "note": "[compound 15, proline derivative 15]", "values": [
      {"measurement": "C3 hydroxylation, product isolated after Boc protection", "setting": "[3]", "result": "The final C3 hydroxylation was performed with GetF"}
    ]},
    {"smiles": "NC(=O)NCCC[C@H](N)C(=O)O", "note": "[L-Cit]", "values": [
      {"measurement": "preparative-scale 4-hydroxylation", "setting": "[4]", "result": "Biocatalytic hydroxylation of L-Pip and L-Cit was performed on preparative scale with GetF and GetI"}
    ]},
    {"smiles": "O=C(O)[C@@H]1CCCCN1", "note": "[L-Pip]", "values": [
      {"measurement": "preparative-scale hydroxylation", "setting": "[5]", "result": "Biocatalytic hydroxylation of L-Pip and L-Cit was performed on preparative scale with GetF and GetI"}
    ]},
    {"smiles": "CC(C)C[C@H](N)C(=O)O", "note": "[L-leucine]", "values": [
      {"measurement": "LCMS of C5 hydroxylation", "setting": "[6]", "result": "GriE revealed a highly active enzyme that is capable of hydroxylating L-leucine"}
    ]}
  ]
}
